The source of these data is patent publication US20250120902A1, “POSTBIOTIC FERMENT COMPOSITION FOR ROOT, SCALP, AND HAIR CARE AND METHOD OF PREPARING AND USING THE” (THE ROOTIST INC., priority 2023, published 2025).

“And” between values parts separate entries of the source, which are not always exact repeats. Equal entries are not always repeated.

This experiment deals with 3D hair follicle organoids (HFDPC and HEKn cells). In words: Hair follicle organoid growth test. In kind it is cell-based, Human. Conditions: 1 μM. An excerpt: Human Primary Dermal Papilla Cells (HFDPC) were collected from a person and provided by Kyungpook National University. Human Primary Epidermal Keratinocytes, neonatal foreskin (HEKn) cells were purchased from ATCC. […] The hair follicle organoid growth test aims to mass-produces hair follicle organoids by proliferating dermal papilla cells isolated from adult hair tissue in vitro, mixing them with keratinocytes, and then co-culturing them on a specially designed particle pattern substrate ([…], 150 spheroids/well). The experiment enables the assessment of the sample's impact on hair growth by monitoring changes in the diameter of keratinocyte pillars within the developed hair follicle organoid. In this test, to differentiate and validate the growth of HFDPC and HEKn cells, HFDPC cells were stained with Cell tracker CM-DilTM and HEKn cells were stained with Cell tracker Green CMFDATM. Stained HFDPC cells underwent filtration using a 15 μm strainer before being combined with DMEM medium to yield a density of 5×10^4 cells/well. Similarly, HEKn cells were adjusted to a density of 3×10^4 cells/well. […] 4) The test result measurements were initially analyzed using the Linear Mixed Model (LMM), which accounts for the random effects of each well. However, due to the lack of normality, the data were re-analyzed using the Generalized Linear Mixed Model (GLMM), which is suitable for non-normal data. […]

For `Nc1cc(N2CCCCC2)nc(N)[n+]1[O-]` [Minoxidil, minoxidil], the “Hair follicle organoid growth rate” value (day 3, compared to the untreated group (100%)) is 114.67% and 114.67 ± 5.69%. In addition, the “hair follicle organoid diameter” value (day 3, estimated mean ± standard deviation) is listed as 25.77 ± 1.28 μm.
